Measurements from patent US11077145B2, “Method for mass producing proteins in mesenchymal stem cells” (STEMMEDICARE CO., LTD., priority 2015, dated 2021).
Where “and” joins values, the source holds several entries; their conditions need not be identical. Equal values may be shown once. Marks after values point to notes of the source that are not given here.

Columns and labels:
C57BL/6 mice [1] = experiment: Hair growth suppression model (dexamethasone), hair growth score and number of hair follicles; format: in vivo, mouse; set-up: hair growth score, Average: scale not given here
Protocol: A comparative test was performed to examine the hair growth effect of the mesenchymal stem cell conditioned medium of the present invention using C57BL/6 mice. After depilating the test animals, the depilatory was treated to induce them from the telogen (resting phase) to the anagen (growing phase), and then to suppress the growth of hair follicles, 0.1% of dexamethanone was transdermally administered for 5 days from 8 days after depilation repeatedly. Next, in order to compare the growth promoting effect of the test substance containing 3% of the mesenchymal stem cell conditioned medium of the present invention, the growth promoting effects were compared with the test substance by transdermally administered repeatedly of G1 (distilled water control), G2 (placebo control), G3 (test substance) and G4 (positive control-minoxidil 5%) for 8 days.

C57BL/6 mice [2] = experiment: Anagen hair model, hair growth score and number of hair follicles; format: in vivo, mouse; set-up: hair growth score, Average: scale not given here
Protocol: A comparative test was performed to investigate the effect of hair growth promotion of the mesenchymal stem cell conditioned medium of the present invention using C57BL/6 mice. After induction of the hair follicles of the test animal from the telogen (resting phase) to the […] (growing phase) and depilatione, in order to compare the growth promoting effect of the test substance containing 3% of the mesenchymal stem cell conditioned medium of the present invention, G1 (distilled water control), G2 (placebo control), G3 (test substance) and G4 (positive control-minoxidil 5%) were transdermally administered repeatedly for 14 days respectively, and the hair growth promoting effects were compared with the test substance.

[3] = individual animal average of 3 areas
[4] = individual animal, female, 8th day of administration
[5] = individual animal, histopathological examination
[6] = individual animal, female, 13th day

Structure (SMILES): Nc1cc(N2CCCCC2)nc(N)[n+]1[O-] [G4, Minoxidil]
- number of hair follicles, Total Average (C57BL/6 mice [1]; group average, transdermal for 8 days): 66.37
- hair growth score, Total Average (C57BL/6 mice [1]; group average, transdermal for 8 days, 8th day): 2.68 points
- number of hair follicles, Average (C57BL/6 mice [1]; [3]): 87.67 and 92.33 and 71.00 and 36.33 and 108.33 and 61.33 and 45.33 and 29.67 and 36.00 and 95.67
- hair growth score, Average (C57BL/6 mice [1]; individual animal average, 8th day of administration): 3.00 (3×) and 1.75 (2×) and 2.25 and 2.75 (2×) and 2.50 and 4.00
- hair growth score, Score 1st (C57BL/6 mice [1]; [4]): 2 (40~59% (2)) (6×) and 1 (20~39% (1)) (2×) and 3 (60~79% (3)) and 4 (80~100% (4))
- hair growth score, Score 2nd (C57BL/6 mice [1]; [4]): 2 (40~59% (2)) (7×) and 1 (20~39% (1)) (2×) and 4 (80~100% (4))
- hair growth score, Score 3rd (C57BL/6 mice [1]; [4]): 4 (80~100% (4)) (4×) and 2 (40~59% (2)) (3×) and 3 (60~79% (3)) (2×) and 1 (20~39% (1))
- hair growth score, Score 4th (C57BL/6 mice [1]; [4]): 4 (80~100% (4)) (7×) and 3 (60~79% (3)) (3×)
- number of hair follicles, Area 1 (C57BL/6 mice [1]; [5]): 70 and 97 and 66 and 53 and 114 and 65 and 78 and 46 and 37 and 95
- number of hair follicles, Area 2 (C57BL/6 mice [1]; [5]): 96 and 87 (2×) and 65 and 37 (2×) and 108 and 52 and 19 and 48
- number of hair follicles, Area 3 (C57BL/6 mice [1]; [5]): 97 and 93 and 82 and 19 and 103 and 67 and 21 and 24 and 23 and 105
- hair growth score, Average (C57BL/6 mice [2]; 15th day, female C57BL/6 mice, average of the four scores per animal): 4 (4×) and 3.75 (3×) and 3.5 (3×)
- hair growth score, Total Average (C57BL/6 mice [2]; 15th day, female C57BL/6 mice, group average, transdermal administration for 14 days): 3.78**
- hair growth score, Score 1st (C57BL/6 mice [2]; 15th day, female C57BL/6 mice, individual animal, 1st score): 4 (80~100% (4)) (9×) and 3 (60~79% (3))
- hair growth score, Score 2nd (C57BL/6 mice [2]; 15th day, female C57BL/6 mice, individual animal, 2nd score): 4 (80~100% (4)) (5×) and 3 (60~79% (3)) (5×)
- hair growth score, Score 3rd (C57BL/6 mice [2]; 15th day, female C57BL/6 mice, individual animal, 3rd score): 4 (80~100% (4))
- hair growth score, Score 4th (C57BL/6 mice [2]; 15th day, female C57BL/6 mice, individual animal, 4th score): 4 (80~100% (4)) (7×) and 3 (60~79% (3)) (3×)
- hair growth score, Total Average (C57BL/6 mice [2]; group average, 13th day): 3.27 point
- hair growth score, Total Average (C57BL/6 mice [2]; group average, 15th day): 3.78 point
- number of hair follicles, Total Average (C57BL/6 mice [2]; group average, transdermal for 14 days): 104.70
- number of hair follicles, Average (C57BL/6 mice [2]; [3]): 191.33 and 107.67 and 69.00 and 149.67 and 54.67 and 82.67 and 72.33 and 130.33 and 138.67 and 50.67
- hair growth score, Average (C57BL/6 mice [2]; individual animal average, 13th day): 3.67 (2×) and 4.00 (2×) and 3.33 (2×) and 3.00 and 2.33 and 2.67 (2×)
- hair growth score, Score 1st (C57BL/6 mice [2]; [6]): 3 (60~79% (3)) (4×) and 4 (80~100% (4)) (2×) and 2 (40~59% (2)) (4×)
- hair growth score, Score 2nd (C57BL/6 mice [2]; [6]): 3 (60~79% (3)) (5×) and 4 (80~100% (4)) (2×) and 1 (20~39% (1)) (2×) and 2 (40~59% (2))
- hair growth score, Score 3rd (C57BL/6 mice [2]; [6]): 4 (80~100% (4)) (6×) and 3 (60~79% (3)) (4×)
- hair growth score, Score 4th (C57BL/6 mice [2]; [6]): 4 (80~100% (4)) (5×) and 3 (60~79% (3)) (5×)
- number of hair follicles, Area 1 (C57BL/6 mice [2]; [5]): 232 and 48 and 92 and 135 and 45 and 90 and 71 and 149 and 121 and 53
- number of hair follicles, Area 2 (C57BL/6 mice [2]; [5]): 209 and 135 and 55 and 155 and 50 and 94 and 79 and 126 and 164 and 41
- number of hair follicles, Area 3 (C57BL/6 mice [2]; [5]): 133 and 140 and 60 and 159 and 69 and 64 and 67 and 116 and 131 and 58
